# Measurements: PMC7272432, “Amyloid Aggregation of Insulin: An Interaction Study of Green Tea Constituents” (Scientific Reports, 2020)
# Biological target: T1, human insulin (Homo sapiens, UniProt P01308)
# T1 construct: gene INS; Human insulin (I2643, recombinant, expressed in yeast); 51 amino acids divided into two chains
# Test: ThT fluorescence assay of insulin amyloid aggregation ([…] insulin, pH […] °C), supported by kinetics, AFM and ATR-FTIR
# Type: biochemical
# T1 sequence (P01308 25-54): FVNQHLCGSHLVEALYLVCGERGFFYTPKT
# T1 sequence (P01308 90-110): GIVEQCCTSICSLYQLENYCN
smiles,measurement,value
"O=C(O[C@@H]1Cc2c(O)cc(O)cc2O[C@@H]1c1cc(O)c(O)c(O)c1)c1cc(O)c(O)c(O)c1 [EGCG, (-)-epigallocatechin gallate]",IC50,476 ± 32.5 µM
